Consider 1 compound from US20240115718A1, “METHODS OF USING ANTI-CD79B IMMUNOCONJUGATES TO TREAT DIFFUSE LARGE B-CELL LYMPHOMA” (Genentech, Inc., priority 2021, published 2024).

This data set relates to patients with relapsed or refractory diffuse large B-cell lymphoma (R/R DLBCL). The data set is described as follows: Phase Ib/II study of Pola-R-Len, safety: adverse events graded per NCI CTCAE Version 4.0. Type of data set: in vivo, human. The following applies: in combination with polatuzumab vedotin 1.8 mg/kg and rituximab 375 mg/m^2; PO Days 1-21 of 28-day cycles.

Procedure: Adverse events were assessed based on the National Cancer Institute Common Terminology Criteria for Adverse Events (NCI CTCAE; Version 4.0). Adverse events that are not specifically listed in the NCI CTCAE were graded as follows: • Grade 1: Mild; asymptomatic or mild symptoms; clinical or diagnostic observations only; or intervention not indicated. • Grade 2: Moderate; minimal, local, or non-invasive intervention indicated; or limiting age-appropriate instrumental activities of daily living. • Grade 3: Severe or medically significant, but not immediately life threatening; hospitalization or prolongation of hospitalization indicated; disabling; or limiting self-care activities of daily living. • Grade 4: Life-threatening consequences or urgent intervention indicated. • Grade 5: Death related to adverse event.
The following populations were defined: • The primary safety and efficacy populations included patients who received at least one dose of any component of the treatment combination. • The intent-to-treat population included patients enrolled in the study.

For `Nc1cccc2c1CN(C1CCC(=O)NC1=O)C2=O` (stereo not shown) [lenalidomide], the “recommended Phase II dose (RP2D)” value is on record as 20 mg.
